ChEMBL document CHEMBL1212895

Key:
[1] = biological target: T1, Estrogen receptor (Homo sapiens) (UniProt P03372); conditions: MCF7, 25 uM
T1 sequence (whole entry): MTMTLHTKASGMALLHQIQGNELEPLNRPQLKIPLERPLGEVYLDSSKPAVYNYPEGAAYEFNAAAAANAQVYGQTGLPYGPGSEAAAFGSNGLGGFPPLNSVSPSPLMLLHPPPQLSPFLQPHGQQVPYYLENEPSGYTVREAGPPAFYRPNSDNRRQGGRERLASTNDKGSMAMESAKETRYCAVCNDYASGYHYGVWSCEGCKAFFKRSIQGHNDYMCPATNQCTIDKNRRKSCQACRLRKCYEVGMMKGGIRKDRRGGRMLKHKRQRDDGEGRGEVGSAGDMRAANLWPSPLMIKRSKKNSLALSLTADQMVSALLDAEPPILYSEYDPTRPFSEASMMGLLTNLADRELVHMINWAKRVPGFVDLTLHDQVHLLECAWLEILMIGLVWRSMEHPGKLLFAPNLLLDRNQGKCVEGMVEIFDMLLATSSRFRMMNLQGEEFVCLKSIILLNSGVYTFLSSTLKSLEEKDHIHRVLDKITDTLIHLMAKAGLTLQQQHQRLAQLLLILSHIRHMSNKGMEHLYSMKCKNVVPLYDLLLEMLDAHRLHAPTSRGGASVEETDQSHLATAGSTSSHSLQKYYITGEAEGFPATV

[2] = biological target: T1, Estrogen receptor (Homo sapiens); conditions: MCF7, 10 uM

SMILES | inhibition [1] [%] | inhibition [2] [%]
CC(C)COc1ccc2c(=O)c(-c3ccc(O)cc3)coc2c1 | 91.3 | 60.5
CCCCCCOc1ccc2c(=O)c(-c3ccc(O)cc3)coc2c1 | 46.4 | –
CCCOc1ccc2c(=O)c(-c3ccc(O)cc3)coc2c1 | 41.4 | –
CCOc1ccc2c(=O)c(-c3ccc(O)cc3)coc2c1 | 18.8 | –
COc1ccc2c(=O)c(-c3ccc(O)cc3)coc2c1 | 33.2 | –
CC1(C)C=Cc2c(ccc3c(=O)c(-c4ccc(O)cc4)coc23)O1 | 100 | 54.6
O=c1c(-c2ccc(O)cc2)coc2cc(OC3CCCC3)ccc12 | 89.8 | 54.1
O=c1c(-c2ccc(O)cc2)coc2cc(O)ccc12 | – | 17.2
CC(C)Oc1ccc2c(=O)c(-c3ccc(O)cc3)coc2c1 | 68.1 | 33.4
CCCCOc1ccc2c(=O)c(-c3ccc(O)cc3)coc2c1 | 49.8 | –
